This passage reports GI50 and melting point results from publication PMC10303900, “Discovery of a New Chalcone-Trimethoxycinnamide Hybrid with Antimitotic Effect: Design, Synthesis, and Structure—Activity Relationship Studies” (Pharmaceuticals, 2023).

Where two headings read alike, the source gives them in different places. Where only a bound is given, the exact number is not on record here.

A word on the melting point: it is the temperature of the solid-liquid transition.

Data set [1] relates to A375-C5. Briefly: Sulforhodamine B (SRB) growth inhibition assay, melanoma cells. As to conditions: Homo sapiens, 48 h. It is filed as cell-based. The protocol: (§1) A sulforhodamine B (SRB) assay was performed to evaluate the in vitro growth inhibitory activity of all synthesized hybrids, as well as intermediates in the human tumor cell lines of melanoma (A375-C5), breast adenocarcinoma (MCF-7), and colorectal carcinoma (HCT116), as well as on the non-tumor Human Pulmonary Alveolar Epithelial cell line (HPAEpiC). The concentration inducing 50% cell growth inhibition (GI50), was calculated. […] The overall results prompt us to further investigate the mechanism behind the cytotoxic activities of compounds 6, 7, and 13 in colorectal tumor cells. Moreover, in silico studies were performed, aiming to screen for drug-likeness.
(§2) A375-C5 (melanoma) and MCF-7 (breast adenocarcinoma) cell lines were obtained from the European Collection of Cell Culture, UK, and were grown in RPMI-1640 medium (Roswell Park Memorial Institute, Biochrom, Cambridge, UK) with 5% inactivated FBS (fetal bovine serum, Biochrom). HCT-116 (colon adenocarcinoma) cells were grown in DMEM medium (Dulbecco’s Modified Eagle’s, Biochrom) with 5% inactivated FBS. The non-tumor human pulmonary alveolar epithelial cells (HPAEpiC) were obtained from ScienCell Research Laboratories and grown in DMEM medium supplemented with 10% FBS and 1% non-essential amino acids (Sigma-Aldrich Co., Saint Louis, MO, USA). All cell lines were maintained in a humidified incubator (Hera Cell, Heraeus, Hanau, Germany) at 37 °C and with 5% CO2, and cell viability was regularly monitored using the exclusion trypan blue dye.
(§3) A total of 5.0 × 10^4 A375-C5, MCF-7, and HCT-116 cells, or 6.0 × 10^4 HPAEpiC cells were seeded in 96-well plates and incubated at 37 °C and 5% CO2 to allow for cell attachment. After 24 h, cells were treated with two-fold serial dilutions of test compounds (0–150 µM), or with DMSO as the compound solvent. In parallel, cells in a time-zero (T0) plate, without treatment, were fixed with 50% (m/v) trichloroacetic acid (TCA, Merck Millipore, Darmstadt, Germany), for 1 h at 4 °C, and then washed with distilled water and left to dry. Forty-eight hours after compound treatment, cells were fixed with 50% TCA and stained with SRB (Sigma-Aldrich Co., Ltd., Gillingham, UK) for 30 min at room temperature, followed by 5 rounds of washing with 1% (v/v) acetic acid (Merck Milli-pore, Darmstadt, Germany). SRB–protein complexes were then solubilized with […] Tris buffer (Sigma-Aldrich Co., Ltd., Gillingham, UK) for 30 min, and the absorbance was measured at 515 nm in a microplate reader (Biotek Synergy 2, BioTek Instruments, Inc., Winooski, VT, USA). A dose-response curve was obtained for each cell line, and the concentration that caused 50% cell growth inhibition (GI50) was calculated.

Data set [2] concerns HCT116 (HCT116 p53+/+). Briefly: SRB growth inhibition assay, colorectal carcinoma cells. It counts as cell-based. Conditions: Homo sapiens, HCT-116. The protocol: as §1, §2, §3
Data set [3] deals with HPAEpiC. Briefly: SRB growth inhibition assay, non-tumor pulmonary alveolar epithelial cells. It is filed as cell-based. As to conditions: Homo sapiens, Epithelial cell, 48 h. On the procedure: as §1, §2, §3
Data set [4] concerns MCF-7. Nature of the data set: SRB growth inhibition assay, breast adenocarcinoma cells. It counts as cell-based. Conditions: Homo sapiens, MCF7, 48 h. On the procedure: as §1, §2, §3
Data set [5] concerns A375-C5, MCF-7 and HCT116 cell lines. Briefly: SRB growth inhibition, range over the tumor cell lines of Table 1. It counts as cell-based. Conditions: Homo sapiens; SAR discussion, values of Table 1. On the procedure: Considering the antiproliferative effects on tumor cells of all the studied compounds (Table 1), some SAR considerations may be undertaken (Figure 2). […] Nevertheless, this effect is not observed for the flavone derivatives 15 and 16. […] Additionally, with the screening of the synthetic intermediates, some conclusions can also be inferred (Figure 2).
as §3

[6] abbreviates: SRB, 48 h, read-out: GI50 HCT116.

Take `CCCc1c(OCCNC(=O)c2cc(OC)c(OC)c(OC)c2)ccc(C(=O)/C=C/c2cc(OC)c(OC)c(OC)c2)c1O` [Compound 8, (E)-N-(2-(3-hydroxy-2-propyl-4-(3-(3,4,5-trimethoxyphenyl)acryloyl)phenoxy)ethyl)-3,4,5-trimethoxybenzamide]: the melting point is 201 to 203 °C. For the same compound, the GI50 in data set [1] was greater than 75 µM. Moreover, the GI50 in data set [2] (setting [6]) stood at 13.5 ± 2.46 µM. For the same compound, the GI50 in data set [3] was greater than 75 µM. In addition, the GI50 in data set [4] was greater than 75 µM.

In turn, `CCCc1c(OCC(=O)O)ccc(C(=O)/C=C/c2cc(OC)c(OC)c(OC)c2)c1O` [Compound 11, (E)-2-(3-hydroxy-2-propyl-4-(3-(3,4,5-trimethoxyphenyl)acryloyl)phenoxy)acetic acid] returned a melting point of 200 to 202 °C. The GI50 in data set [1] is 29.4 ± 1.05 µM. Also, the GI50 in data set [2] (setting [6]) stood at 26.9 ± 1.6 µM. In addition, the GI50 in data set [3] was greater than 75 µM. In addition, the GI50 in data set [5] was 26.9 to 58.3 µM. In data set [4], the GI50 stood at 58.3 ± 8.37 µM.

In turn, `CCCc1c(OCC(=O)O)ccc(C(=O)/C=C/c2cc(OC)c(OC)c(OC)c2)c1OCC(=O)O` [Compound 12, (E)-2,2’-((2-propyl-4-(3-(3,4,5-trimethoxyphenyl)acryloyl)-1,3-phenylene)bis(oxy))diacetic acid] showed a melting point of 212 to 214 °C. The GI50 in data set [1] is greater than 75 µM. Further, the GI50 in data set [2] (setting [6]) was greater than 75 µM. In data set [3], the GI50 was greater than 75 µM. For the same compound, the GI50 in data set [5] is greater than 75 µM. Besides, the GI50 in data set [4] is greater than 75 µM.

As to `CCCc1c(OCCNC(=O)OC(C)(C)C)ccc2c(=O)cc(-c3cc(OC)c(OC)c(OC)c3)oc12` [Compound 14, tert-butyl (2-((4-oxo-8-propyl-2-(3,4,5-trimethoxyphenyl)-4H-chromen-7-yl)oxy)ethyl)carbamate], the melting point lay in the range of 191 to 193 °C. Moreover, the GI50 in data set [1] is greater than 75 µM. Also, the GI50 in data set [2] (setting [6]) was greater than 75 µM. Further, the GI50 in data set [3] was greater than 75 µM. Also, the GI50 in data set [4] is greater than 75 µM.

`CCCc1c(OCCNC(=O)/C=C/c2cc(OC)c(OC)c(OC)c2)ccc2c(=O)cc(-c3cc(OC)c(OC)c(OC)c3)oc12` [Compound 15, (E)-N-(2-((4-oxo-8-propyl-2-(3,4,5-trimethoxyphenyl)-4H-chromen-7-yl)oxy)ethyl)-3-(3,4,5-trimethoxyphenyl)acrylamide] showed a melting point of 198 to 199 °C. Besides, the GI50 in data set [1] was greater than 75 µM. In addition, in data set [2] (setting [6]), the GI50 is greater than 75 µM. The GI50 in data set [3] is greater than 75 µM. In data set [4], the GI50 is greater than 75 µM.

Take `CCCc1c(OCCNC(=O)c2cc(OC)c(OC)c(OC)c2)ccc2c(=O)cc(-c3cc(OC)c(OC)c(OC)c3)oc12` [Compound 16, 3,4,5-trimethoxy-N-(2-((4-oxo-8-propyl-2-(3,4,5-trimethoxyphenyl)-4H-chromen-7-yl)oxy)ethyl)benzamide]: the melting point fell in the range of 196 to 199 °C. Besides, in data set [1], the GI50 is greater than 75 µM. The GI50 in data set [2] (setting [6]) turned out to be 28.6 ± 5.05 µM. For the same compound, in data set [3], the GI50 was greater than 75 µM. Also, the GI50 in data set [4] was greater than 75 µM.

`CCCc1c(OCC(=O)Nc2cc(OC)c(OC)c(OC)c2)ccc2c(=O)cc(-c3cc(OC)c(OC)c(OC)c3)oc12` [Compound 17, 2-((4-oxo-8-Propyl-2-(3,4,5-trimethoxyphenyl)-4H-chromen-7-yl)oxy)-N-(3,4,5-trimethoxyphenyl)acetamide] had a melting point of 195 to 197 °C. In addition, in data set [1], the GI50 is greater than 75 µM. Besides, in data set [2] (setting [6]), the GI50 came to 24.7 ± 3.04 µM. Moreover, the GI50 in data set [3] is greater than 75 µM. The GI50 in data set [4] was greater than 75 µM.

As for `CCCc1c(OCC(=O)O)ccc2c(=O)cc(-c3cc(OC)c(OC)c(OC)c3)oc12` [Compound 18, 2-((4-oxo-8-propyl-2-(3,4,5-trimethoxyphenyl)-4H-chromen-7-yl)oxy)acetic acid], the GI50 in data set [1], in data set [2] (setting [6]), in data set [3] and in data set [4] was greater than 75 µM throughout.

On to `COc1cccc2c1C(=O)c1c(O)c3c(c(O)c1C2=O)C[C@@](O)(C(=O)CO)C[C@@H]3O[C@H]1C[C@H](N)[C@H](O)[C@H](C)O1` [Doxorubicin, reference compound], for which the GI50 in data set [1] was 0.028 ± 0.002 µM; in data set [2] (setting [6]), 0.085 ± 0.008 µM; in data set [3] it was 0.091 ± 0.013 µM; in data set [4], 0.083 ± 0.003 µM.

On to `COc1cc([C@@H]2c3cc4c(cc3[C@@H](O[C@@H]3O[C@@H]5CO[C@@H](C)O[C@H]5[C@H](O)[C@H]3O)[C@H]3COC(=O)[C@H]23)OCO4)cc(OC)c1O` [Etoposide, reference compound], for which the GI50 in data set [2] (Table 2, 48 h, read-out: GI50 HCT116 p53+/+) came to 0.71 µM.
